{"source": "paper PMC7408493", "about": "“Implication of Opioid Receptors in the Antihypertensive Effect of a Novel Chicken Foot-Derived Peptide” (Biomolecules, 2020)", "assay_type_in_all_cases": "in vitro ADME", "key": {"porcine pepsin": {"molecular_target": "T1, porcine pepsin (Sus scrofa, UniProt P00791)", "T1 construct": "purchased Sigma-Aldrich (Madrid, Spain)", "T1 sequence (P00791 60-385)": "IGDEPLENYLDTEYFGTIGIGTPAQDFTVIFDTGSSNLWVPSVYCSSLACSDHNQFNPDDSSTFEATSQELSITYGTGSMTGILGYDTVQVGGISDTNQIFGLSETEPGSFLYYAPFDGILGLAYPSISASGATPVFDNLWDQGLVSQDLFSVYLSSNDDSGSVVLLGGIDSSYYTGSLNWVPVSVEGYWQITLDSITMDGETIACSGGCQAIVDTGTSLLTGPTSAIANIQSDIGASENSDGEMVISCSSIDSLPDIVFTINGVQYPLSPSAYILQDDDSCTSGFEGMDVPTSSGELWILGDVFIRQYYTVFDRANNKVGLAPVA", "assay": "In vitro simulated gastric digestion (G60)", "settings": "60 min", "experimental": "For the in vitro simulated peptide GI digestion, a two-stage hydrolysis process was carried out according to Martos et al.. […] was dissolved in simulated gastric fluid (35 mM NaCl at pH 2 for 15 min) and posteriorly subjected to digestion by porcine pepsin (E.C. 3.4.23.1, 3440 units/mg) at an enzyme/substrate ratio of 1: 20 w/w at 37 °C for 60 min. Gastric digestion with pepsin was stopped by adding 1 M NaHCO3 and pH was adjusted to 7.0 with NaOH 1 M (final protein concentration of 5 mg/mL). Aliquots of this gastric digest were collected (G60) and stored at −20 °C until analysis. Duodenal digestions were performed by using, as the starting material, the obtained gastric digests, with the addition of 1 M CaCl2, 0.25 M bis-Tris pH 6.5, 0.25 M bis-Tris pH 6.5, and a 0.125 M bile salts mixture containing equimolar quantities of sodium taurocholate and glycodeoxycholic acid. Posteriorly, the duodenal enzymes trypsin (EC 232-650-8, 10100 BAEE units/mg protein), α-chymotrypsin (EC 232-671-2; 55 units/mg protein), porcine pancreatic lipase (EC 232-619-9) and colipase (EC 259-490-1), prepared in 35 mM NaCl adjusted to pH 7, were added to the solution. Duodenal digestion was carried out at pH 7, 37 °C during 60 (D60). Then, enzymes were inactivated by heating at 95 °C for 10 min in a water bath, followed by cooling to room temperature. Triplicates of aliquots at each time point were collected and stored at −20 °C until analysis.\n(§1) Samples obtained from in vitro peptide simulated digestion and Caco-2 monolayers were diluted 10 times with water (0.1% FA) and centrifuged (15,000 rpm, 15 min, 4 °C). Supernatants were directly analyzed by UHPLC-HRMS to avoid the loss of polar peptide fragments. Extensive clean-up or pre-concentration procedures were not necessary due to the high concentration of peptide and low matrix complexity than plasma samples.\n(§2) The obtained purified solutions from plasma and peptide digests G60 and D60 and from AP and BL chambers in Caco-2 experiment were analyzed using a UHPLC 1290 Infinity II Series coupled to a QqQ 6490 Series (Agilent Technologies, Santa Clara, CA, USA) for tandem mass experiments or a qTOF 6550 Series (Agilent Technologies) for high-resolution mass spectrometry experiments. Chromatographic separation of peptide or their fragments were performed using a Kinetex 2.6 µm EVO C18 column (150 × 2.1 mm, […]) from (Phenomenex, Torrance, USA) as stationary phase and water containing 0.1% formic acid (solvent A) and acetonitrile (solvent B) as mobile phase. The separation was performed in gradient elution as follows: isocratic; 0–0.5 min, 2 % B; 0.5–1 min, 2–6% B; 1–5 min, 6–15% B; 5–6 min, 15–35% B; 6–10 min, 35–98% B; 10–12 min, 98% B isocratic; 12–12.10, 98–2% B. For all runs, 10 μL of the sample (4 °C) was injected, and the flow rate was 0.350 mL/min and the column temperature was 25 °C.\n(§3) For in vitro simulated digestion experiments and Caco-2 monolayer samples, qTOF instrument was used to investigate the presence of unknown peptide fragments and previously in silico predicted peptide fragments by means of its accurate mass. Peptide and its fragments were semi-quantified using the chromatographic peak area observed in the extracted ion chromatograms using a 20 ppm mass window."}, "Caco-2 cell monolayers": {"tested_on": "Caco-2 cell monolayers", "assay": "Transepithelial transport through Caco-2 monolayer", "settings": "1 h, 37 °C, UHPLC-HRMS", "experimental": "Caco-2 cells were obtained from Sigma-Aldrich and were grown Dulbecco’s modified minimum essential medium (DMEM), supplemented with 20% fetal bovine serum (FBS), […] L-glutamine, 100 U/mL penicillin and 100 μg/mL streptomycin at 37 °C in and 5% CO2. Cells were seeded onto Transwell inserts permeable membrane support (0.4 µm pore, 24 mm diameter, 4.7 cm^2 grown surface from Merck Co., Bedford, MA, USA) placed in six-well plates. The seeding density was 12,000 cell/cm^2. The medium was replaced every 2–3 days and cells were growing for 21 days. On the 21st day of the procedure, the integrity of the Caco-2 monolayer was assessed by the measurement of transepithelial electrical resistance (TEER) using a Millicell ERS-2 voltammeter (EMD Millipore, Darmstadt, Germany) selecting the ones with TEER values higher than 200 Ω/cm^2.\nFor the transport study, Caco-2 cells, maintained in DMEM, were gently rinsed with Hank’s balanced salt solution (HBSS) and equilibrated for 20 min at 37 °C prior to the transport study. Then, it was evaluated the transepithelial transport of the peptide […] (1 mM) dissolved in HBSS and the digests obtained in the in vitro simulated digestion (G60 and D60). […] or the peptide digests G60 and D60 were added to the apical (AP) chamber and were incubated for 1 h at 37 °C. After this time, triplicates of the AP chamber content and the basolateral (BL) chamber content were taken and stored at −80 °C until ultra-high performance liquid chromatography-high resolution mass spectrometry (UHPLC-HRMS) analyses.\nas §1, §2, §3"}, "[1]": {"tested_on": "trypsin, α-chymotrypsin, porcine pancreatic lipase and colipase", "assay": "In vitro simulated duodenal digestion (D60)", "settings": "60 min simulated duodenal digestion, pH 7, 37 °C", "experimental": "For the in vitro simulated peptide GI digestion, a two-stage hydrolysis process was carried out according to Martos et al.. […] was dissolved in simulated gastric fluid (35 mM NaCl at pH 2 for 15 min) and posteriorly subjected to digestion by porcine pepsin (E.C. 3.4.23.1, 3440 units/mg) at an enzyme/substrate ratio of 1: 20 w/w at 37 °C for 60 min. Gastric digestion with pepsin was stopped by adding 1 M NaHCO3 and pH was adjusted to 7.0 with NaOH 1 M (final protein concentration of 5 mg/mL). Aliquots of this gastric digest were collected (G60) and stored at −20 °C until analysis. Duodenal digestions were performed by using, as the starting material, the obtained gastric digests, with the addition of 1 M CaCl2, 0.25 M bis-Tris pH 6.5, 0.25 M bis-Tris pH 6.5, and a 0.125 M bile salts mixture containing equimolar quantities of sodium taurocholate and glycodeoxycholic acid. […]\nSamples obtained from in vitro peptide simulated digestion and Caco-2 monolayers were diluted 10 times with water (0.1% FA) and centrifuged (15,000 rpm, 15 min, 4 °C). Supernatants were directly analyzed by UHPLC-HRMS to avoid the loss of polar peptide fragments. […]"}}, "note": "Ends that are not written are not given here.", "data": [{"sequence": "AVFQHNCQE", "values": [{"measurement": "Resistance to gastric digestion", "setting": "porcine pepsin; pepsin, pH 2, 37 °C, most intense signal in G60 was the native peptide", "result": "resistant to gastric digestion"}, {"measurement": "Area G60 (chromatographic peak area)", "setting": "porcine pepsin; simulated gastric fluid 35 mM NaCl pH 2, porcine pepsin enzyme/substrate 1:20 w/w, 37 °C, UHPLC-HRMS extracted ion chromatogram, 20 ppm window, semi-quantified, triplicate aliquots", "result": "5,236,186"}, {"measurement": "G60 % Transport", "setting": "Caco-2 cell monolayers; 21 days, TEER > 200 Ω/cm^2, gastric digest G60 added to apical chamber, AP to BL, HBSS, content in basolateral chamber in comparison to apical chamber, triplicates", "result": 0.25, "unit": "%"}, {"measurement": "Absorption through the intestinal monolayer", "setting": "Caco-2 cell monolayers; native peptide 1 mM in HBSS or digests in apical chamber", "result": "not absorbed through the intestinal monolayer"}, {"measurement": "Fate after duodenal digestion", "setting": "[1]", "result": "mainly hydrolyzed into free amino acid residues"}]}]}
